# Activity calls are given as the source filed them. No cut-off for these calls is given here.
# Columns and labels:
# cTAR DNA [1] = experiment: Binding affinity to HIV1 nucleocapsid protein (11 to 55 residues)-targeted Rh6G-5'-cTAR DNA-3'-Dabcyl assessed as inhibition of NC-induced viral Rh6G-5'-cTAR DNA-3'-Dabcyl destabilization by measuring fluorescence intensity up to 60 mins by fluorescence assay; assay type: nucleic-acid assay, Human immunodeficiency virus 1
# [2] = system: Human immunodeficiency virus 1; experiment: Antiviral activity against HIV1 pNL4.3deltaenvLuc-ADA 8 pseudotyped virus infected in human U373-CD4-CCR5 cells assessed as reduction in viral infection measured after 48 hrs by luciferase assay; assay type: functional, organism-based; settings: Human immunodeficiency virus 1, 48 h
# cTAR DNA [3] = experiment: Binding affinity to HIV1 fluorescein-labeled-5'-cTAR DNA at cTAR to compound complex stoichiometry ratio of 1:3 using 150 mM NaCl by fluorescence anisotropy assay; assay type: nucleic-acid assay; settings: Human immunodeficiency virus 1
# cTAR DNA [4] = experiment: Binding affinity to HIV1 propidium iodide-labeled-5'-cTAR DNA at cTAR to compound complex stoichiometry ratio of 1:3 using 30 mM NaCl by fluorescence anisotropy assay; assay type: nucleic-acid assay; settings: Human immunodeficiency virus 1
# [5] = system: Human immunodeficiency virus 1; experiment: Antiviral activity against HIV1 3B infected in human MT4 cells assessed as protection against virus-induced cytopathic effect incubated for 5 days by MTT assay; assay type: functional, organism-based; settings: Human immunodeficiency virus 1, 3B, MT4, 120 h
# [6] = system: Human immunodeficiency virus 1; experiment: Binding affinity to HIV1 nucleocapsid protein (11 to 55 residues) assessed as increase in fluorescence intensity of Trp37 residue at 100 uM by fluorescence anisotropy assay
# ssDNA [7] = experiment: Competitive binding affinity to HIV1 S3G5 oligonucleotide at 20 degreeC by isothermal titration calorimetry; assay type: nucleic-acid assay; settings: Human immunodeficiency virus 1
# [8] = system: Human immunodeficiency virus 1; experiment: Binding affinity to HIV1 nucleocapsid protein (11 to 55 residues) assessed as change in fluorescence intensity of Trp37 residue up to 10 uM by fluorescence anisotropy assay
# PBS RNA [9] = experiment: Binding affinity to HIV1 nucleocapsid protein (11 to 55 residues)-targeted Rh6G-5'-(+)-PBS-3'-Dabcyl/(-)-PBS assessed as inhibition of NC-promoted annealing of +/- PBS sequence at 4 uM by spectrofluorimetry analysis relative to control; assay type: nucleic-acid assay; settings: Human immunodeficiency virus 1
# [10] = Cytotoxicity against human MT4 cells assessed as reduction in cell viability incubated for 5 days by MTT assay; assay type: cell-based
# cTAR DNA [11] = experiment: Binding affinity to HIV1 nucleocapsid protein (11 to 55 residues)-targeted Rh6G-5'-cTAR DNA-3'-Dabcyl/dTAR assessed as inhibition of NC-promoted annealing of Rh6G-5'-cTAR DNA-3'-Dabcyl/unlabeled dTAR at 4 uM after 25 hrs by spectrofluorimetry analysis relative to control; assay type: nucleic-acid assay; settings: Human immunodeficiency virus 1
# cTAR DNA [12] = experiment: Binding affinity to HIV1 fluorescein-labeled-5'-cTAR DNA at cTAR to compound complex stoichiometry ratio of 1:3 using 80 mM NaCl by fluorescence anisotropy assay; assay type: nucleic-acid assay, Human immunodeficiency virus 1
# [13] = Solubility of compound in water; assay type: physicochemical; settings: buffer
# cTAR DNA [14] = experiment: Binding affinity to HIV1 nucleocapsid protein (11 to 55 residues)-targeted Rh6G-5'-cTAR DNA-3'-Dabcyl/dTAR assessed as inhibition of NC-promoted annealing of Rh6G-5'-cTAR DNA-3'-Dabcyl/unlabeled dTAR at 0.4 uM by spectrofluorimetry analysis; assay type: nucleic-acid assay; settings: Human immunodeficiency virus 1
# cTAR DNA [15] = experiment: Inhibition of annealing of HIV1 Rh6G5'-cTAR DNA-3'-Dabcyl/unlabeled dTAR at 4 uM after 25 hrs by spectrofluorimetry analysis; assay type: nucleic-acid assay; settings: Human immunodeficiency virus 1
# ssDNA [16] = experiment: Binding affinity to HIV1 single stranded fluorescein-labeled-5'-S3G5 oligonucleotide at 5'-S3G5 oligonucleotide to compound stoichiometry ratio of 1:3 by fluorescence anisotropy assay; assay type: nucleic-acid assay; settings: Human immunodeficiency virus 1
# PBS RNA [17] = experiment: Inhibition of annealing of HIV1 Rh6G-5'-(+)-PBS-3'-Dabcyl/(-)-PBS at 4 uM by spectrofluorimetry analysis relative to control; assay type: nucleic-acid assay; settings: Human immunodeficiency virus 1
# [18] = Therapeutic index, ratio of CC50 for human U373 cells expressing CD4-CCR5 to IC50 for HIV1 pNL4.3deltaenvLuc-ADA 8 pseudotyped virus infected in human U373-CD4-CCR5 cells; assay type: toxicity, cell-based; settings: read-out: Ratio CC50/IC50
# [19] = system: Human immunodeficiency virus 1; experiment: Binding affinity to HIV1 nucleocapsid protein (11 to 55 residues) assessed as change in fluorescence intensity of Trp37 residue up to 100 uM by fluorescence based analysis
# [20] = Cytotoxicity against human U373 cells expressing CD4-CCR5 assessed as reduction in cell viability incubated for 48 hrs by luciferase assay; assay type: cell-based, U-373MG ATCC; settings: U373 MG
# cTAR DNA [21] = experiment: Binding affinity to HIV1 fluorescein-labeled-5'-cTAR DNA at cTAR to compound complex stoichiometry ratio of 1:3 using 30 mM NaCl by fluorescence anisotropy assay; assay type: nucleic-acid assay, Human immunodeficiency virus 1
# PBS RNA [22] = experiment: Binding affinity to HIV1 propidium iodide-labeled double stranded (-)/(+)-PBS sequence by fluorescence anisotropy assay; assay type: nucleic-acid assay; settings: Human immunodeficiency virus 1
# ssDNA [23] = experiment: Competitive binding affinity to HIV1 S3G5 oligonucleotide assessed as apparent equilibrium dissociation constant of NC(11 to 55 residues) to S3G5 oligonucleotide at 5 uM and 20 degreeC by isothermal titration calorimetry (reference value: 0.15 +/ 0.1 microM); assay type: nucleic-acid assay; settings: Human immunodeficiency virus 1
# ssDNA [24] = experiment: Competitive binding affinity to HIV1 S3G5 oligonucleotide assessed as equilibrium dissociation constant by isothermal titration calorimetry; assay type: nucleic-acid assay, Human immunodeficiency virus 1
# ssDNA [25] = experiment: Competitive binding affinity to HIV1 S3G5 oligonucleotide assessed as apparent equilibrium dissociation constant of NC(11 to 55 residues) to S3G5 oligonucleotide at 20 uM and 20 degreeC by isothermal titration calorimetry (reference value: 0.15 +/- 0.1 microM); assay type: nucleic-acid assay; settings: Human immunodeficiency virus 1
smiles,measurement,setting,value
CCc1c(CNCc2ccc[nH]2)c(CC)c2c(CC)c1CNCc1ccc([nH]1)CNCc1c(CC)c(CNCc3ccc[nH]3)c(CC)c(c1CC)CNCc1ccc([nH]1)CNC2,IC50,cTAR DNA [1],17 µM
c1c[nH]c(CNCc2ccc(CNCc3ccc[nH]3)c3c(CNCc4ccc[nH]4)ccc(CNCc4ccc[nH]4)c23)c1,IC50,cTAR DNA [1],10 µM
CCc1c(CNCc2ccc[nH]2)c(CC)c(CNCc2ccc[nH]2)c(CC)c1CNCc1ccc[nH]1,IC50,cTAR DNA [1],150 µM
c1c[nH]c(CNCc2cc(CNCc3ccc[nH]3)c(CNCc3ccc[nH]3)c(CNCc3ccc[nH]3)c2)c1,IC50,cTAR DNA [1],130 µM
CCc1c(CN[C@@H]2CCCC[C@H]2NCc2ccc[nH]2)c(CC)c(CN[C@@H]2CCCC[C@H]2NCc2ccc[nH]2)c(CC)c1CN[C@@H]1CCCC[C@H]1NCc1ccc[nH]1,IC50,cTAR DNA [1],96 µM
CCc1c(CN[C@H]2CCCC[C@@H]2NCc2ccc[nH]2)c(CC)c(CN[C@H]2CCCC[C@@H]2NCc2ccc[nH]2)c(CC)c1CN[C@H]1CCCC[C@@H]1NCc1ccc[nH]1,IC50,cTAR DNA [1],93 µM
CCc1c2c(CC)c(CN[C@H]3CCCC[C@@H]3N)c(CC)c1CN[C@H]1CCCC[C@@H]1NCc1ccc([nH]1)CN[C@H]1CCCC[C@@H]1NC2,IC50,cTAR DNA [1],63 µM
CCc1c(CN[C@@H]2CCCC[C@H]2N)c(CC)c2c(CC)c1CN[C@@H]1CCCC[C@H]1NCc1ccc([nH]1)CN[C@@H]1CCCC[C@H]1NC2,IC50,cTAR DNA [1],60 µM
c1c[nH]c(CNCc2c(CNCc3ccc[nH]3)c(CNCc3ccc[nH]3)c(CNCc3ccc[nH]3)c(CNCc3ccc[nH]3)c2CNCc2ccc[nH]2)c1,IC50,cTAR DNA [1],52 µM
CCc1c(CNCCNCc2ccc[nH]2)c(CC)c(CNCCNCc2ccc[nH]2)c(CC)c1CNCCNCc1ccc[nH]1,IC50,cTAR DNA [1],58 µM
CCc1c(CN)c(CC)c2c(CC)c1CNCc1ccc([nH]1)CNCc1c(CC)c(CN)c(CC)c(c1CC)CNCc1ccc([nH]1)CNC2,IC50,cTAR DNA [1],4.9 µM
CCc1c(CN)c(CC)c2c(CC)c1CNCc1ccc([nH]1)CNCc1c(CC)c(CNCc3ccc[nH]3)c(CC)c(c1CC)CNCc1ccc([nH]1)CNC2,IC50,[2],1.8 µM
same,Activity,cTAR DNA [3],inactive
same,Activity,cTAR DNA [4],Active
same,IC50,[5],13.5 µM
same,Activity,[6],Active
same,Activity,ssDNA [7],Dose-dependent effect
same,Activity,[8],inactive
same,inhibition,PBS RNA [9],100%
same,CC50 at 120 h,[10],24 µM
same,inhibition,cTAR DNA [11],100%
same,Kd,cTAR DNA [12],2 µM
same,solubility,[13],Soluble
same,Activity,cTAR DNA [14],Active
same,inhibition,cTAR DNA [15],Active
same,K,ssDNA [16],0.6 µM
same,inhibition,PBS RNA [17],100%
same,IC50,cTAR DNA [1],4.4 µM
same,selectivity ratio,[18],8
same,Activity,[19],inactive
same,IC50,[20],15 µM
same,Kd,cTAR DNA [21],0.23 µM
same,Activity,PBS RNA [22],inactive
same,Kapp,ssDNA [23],1.5 µM
same,Kd,ssDNA [24],0.26 µM
same,Kapp,ssDNA [25],12 µM
